Test [1] relates to J774 A.1 cells. As to the kind of experiment: FACS analysis of FITC-rBAG3 binding to J774 macrophages. On the set-up: species or system murine. Particulars: for % of positive cells (±S.D.): flow cytometry. The protocol:
FIG. 3B: BAG3 binds macrophages. J774 A1 macrophages (1×10^6 cells/ml) were incubated with different concentration of Fitc-BAG3 protein (7, 14 and 70 nm). FITC-BSA (70 nM) was used as a negative control (grey). Cells fluorescence was analyzed by flow cytometry.
rBAG3 binding—J774 A.1 cells were blocked with 2% FBS+0.1% NaN3 in PBS for 15 min on ice and incubated (2.5×105/100 μl) with different concentration of FITC-rBAG3 protein (7, 14 and 70 nm) or FITC-BSA (70 nM) in PBS containing 2% FBS+0.1% NaN3 for 30 min at 4° C. in the dark. After washing with PBS, the cells were resuspended in PBS+2% FBS+0.1% NaN3 and analyzed with a FACScan (BD Biosciences) flow cytometer.

The target in test [2] is surface of J774 A1 macrophages (unidentified BAG3 binding partner) (murine). As to the kind of experiment: flow cytometry on J774 A.1 cells, FITC-rBAG3. In general terms: A flow cytometer gives signals particle by particle.
For test [3] the target is unchanged. The test can be described thus: flow cytometry on J774 A.1 cells, FITC-rBAG3 minus FITC-BSA background.
Test [4] deals with J774 A.1 cells. The test can be described thus: FACS competition assay of FITC-rBAG3 binding to J774 macrophages. On the set-up: species or system murine. Particulars: 625 nM peptide, then 14 nM FITC-rBAG3, J774 cells. The method, then: In particular J774 cells were incubated with 14 nM FITC-BAG3 protein and with 625 nM of BAG3 peptides (peptide 1, peptide 2, peptide 3, peptide 4 or scrambled peptide) or with 420 nM of F(ab′)2 fragments from anti-BAG3 monoclonal and polyclonal antibodies (mouse monoclonal AC1, AC2 and rabbit polyclonal TOS2). F(ab′)2 fragments from mouse IgG or F(ab′)2 fragments from rabbit IgG were used as a negative control.
Competition—J774 A.1 cells (2.5×105/100 μl) were incubated with 625 nM of BAG3 peptides (peptide 1, peptide 2, peptide 3, peptide 4 or scrambled peptide) or with 420 nM of F(ab′)2 fragments from anti-BAG3 monoclonal and polyclonal antibodies (mouse monoclonal AC1, AC2 and rabbit polyclonal TOS2) or F(ab′)2 fragments from mouse IgG or F(ab′)2 fragments from rabbit IgG in PBS containing 2% FBS+0.1% NaN3 for 30 min on ice. After incubation the cells were washing with PBS and then were incubated with of FITC-rBAG3 protein (14 nM), in PBS containing 2% FBS+0.1% NaN3 for 30 min at 4° C. in the dark. After washing with PBS, the cells were resuspended in PBS+2% FBS+0.1% NaN3 and analyzed by flow cytometer (BD Biosciences).

Test [5] deals with FITC-conjugated recombinant BAG3 protein (human) (UniProt O95817). The test can be described thus: flow cytometry competition; 14 nM FITC-rBAG3 on J774 A.1 cells with 420 nM control F(ab')2.
UniProt O95817, sequence (O95817 whole entry): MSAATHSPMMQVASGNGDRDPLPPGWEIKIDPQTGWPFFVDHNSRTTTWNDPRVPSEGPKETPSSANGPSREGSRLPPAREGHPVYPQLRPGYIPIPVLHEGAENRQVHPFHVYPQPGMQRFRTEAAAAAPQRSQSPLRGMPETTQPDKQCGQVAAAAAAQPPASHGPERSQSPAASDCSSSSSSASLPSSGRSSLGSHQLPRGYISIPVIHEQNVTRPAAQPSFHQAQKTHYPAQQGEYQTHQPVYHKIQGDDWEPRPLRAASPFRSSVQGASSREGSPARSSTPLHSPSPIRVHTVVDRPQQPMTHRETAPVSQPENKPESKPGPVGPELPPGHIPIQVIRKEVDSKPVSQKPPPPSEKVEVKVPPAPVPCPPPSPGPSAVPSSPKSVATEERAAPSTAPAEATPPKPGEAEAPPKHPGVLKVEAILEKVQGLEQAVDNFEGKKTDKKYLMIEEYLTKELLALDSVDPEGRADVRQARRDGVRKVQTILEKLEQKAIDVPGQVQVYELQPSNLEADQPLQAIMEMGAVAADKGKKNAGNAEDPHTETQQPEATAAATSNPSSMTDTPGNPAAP
The test system of test [6] is inducible nitric oxide synthase (iNOS). As to the kind of experiment: iNOS expression in J774 A1 macrophages incubated with BAG3 (Western blotting). In kind it is cell-based, murine. Particulars: J774 A1 cells, 20 hours, FIG. 3C panel a. The protocol: (§1) FIG. 3C: panel a—Analysis of Cox-2 and iNOS levels in J774 A1 macrophages incubated with BAG3. J774 A1 cells at 80% confluency were incubated with control medium, BSA, LPS or rBAG3, for 20 hours. Polymixin was added where indicated to verify that the effects of E. coli-derived rBAG3 were independent from the presence of contaminating endotoxin. Cox-2 and iNOS expression were analyzed in cell lysates by Western blotting.
(§2) Cells were harvested and lysed in a buffer containing 20 mM HEPES (pH 7.5), 150 mM NaCl, 0.1% Triton (TNN buffer) supplemented with a protease inhibitors cocktail (1 mM phenylmethylsulfonyl fluoride, […]) by 3 cycles of freezing and thawing. Soluble proteins were collected after a centrifugation at 10,000 g for 15 min and their amount was determined by Bradford assay (Bio-Rad, Hercules, Calif.). 25 μg of total protein and serum samples (1:2 in PBS-T 0.05%) were run on 8% or 10% SDS-PAGE gels and electrophoretically transferred to nitrocellulose membrane. […] Immunoreactivity was detected by sequential incubation with horseradish peroxidase-conjugated secondary antibodies purchased from Pierce (Rockford, Ill.) and ECL detection reagents purchased from Amersham Life Sciences Inc. (Arlington Heights, Ill., USA).
For orientation: Immunoblotting shows a protein as a band on a membrane.

Test [7] relates to cyclooxygenase (Cox)-2. As to the kind of experiment: Cox-2 expression in J774 A1 macrophages incubated with BAG3 (Western blotting). In kind it is cell-based, murine. Particulars: J774 A1 cells, 20 hours, FIG. 3C panel a. The protocol:
as §1, §2

Test [8] has as its system J774 A.1 cells. The test can be described thus: Nitrite release from J774 A1 macrophages (Griess reaction). The test is classed as cell-based, murine. Particulars: 24 hours, FIG. 3C panel b. The protocol: FIG. 3C panel b—Analysis of nitrite release from J774 A1 macrophages incubated with BAG3. J774 A1 cells at 80% confluency were incubated with control medium, BSA, LPS or rBAG3 for 24 hours. 100 μl of supernatants from each sample were incubated with 100 μl of Griess reagent; the optical density at 550 nm (OD550) was measured with a Beckman DU62 spectrophotometer. Nitrite concentration was evaluated by comparing the OD550 of the sample with that of a standard curve of sodium nitrite.
Nitrite content (NO2^−), a stable metabolite of NO released by cells in the culture supernatant, was measured in J774 A.1 cells (5×104/in 96-well microplates) treated with LPS (10 ng/ml) or with rBAG3 (7, 14 and 28 nM) or BSA (28 nM) for 24 hours in absence or presence of polymyxin B sulfate (Sigma-Aldrich, St. Louis, Mo., USA) 5 μg/ml. NO2^− amounts were measured by Griess reaction. Briefly, 100 μL of cell culture medium were mixed with 100 μL of Griess reagent—equal volumes of 1% (w:v) sulphanilamide in 5% (v:v) phosphoric acid and 0.1% (w:v) naphtylethylenediamine-HCl—and incubated at room temperature for 10 min, and then the absorbance was measured at 550 nm in a microplate reader Titertek (Dasit, Cornaredo, Milan, Italy). The amount of NO2− (as μM) in the samples was calculated from a sodium nitrite standard curve.
In general terms: Nitrite, measured by Griess reagent, commonly stands in for NO production.

Test [9] relates to J774 A.1 cells. The test can be described thus: IL-6 release from J774 A1 macrophages (ELISA). In kind it is cell-based, murine. Particulars: FIG. 3C panel c. The protocol:
FIG. 3C panel c—Analysis of IL-6 release from J774 A1 macrophages incubated with BAG3. J774 A1 cells at 80% confluency macrophages were incubated with control medium, BSA, LPS or recombinant BAG3 for 5 hours. BAG3 peptides (peptide 1, peptide 2, peptide 3, peptide 4 or scrambled peptide) 625 nM were added where indicated to verify their ability to block BAG3 activity. IL-6 production was measured in cell culture medium using an ELISA test. IL-6 concentration was evaluated by comparing the OD of the sample with that of a standard curve of recombinant IL-6.
IL6 was measured in supernatant of J774 A.1 cells (5×10^4/in 96-well microplates) treated with LPS (10 ng/ml) or with rBAG3 (14 nM) or BSA (14 nM) for 10 or 20 hours in absence or presence of polymyxin B sulfate (5 μg/ml). After treatment 50 μL of cell culture medium were collected and analyzed in triplicate with a mouse IL6 Kit (eBioscience).

In test [10] the test system is HCMa cells. The test can be described thus: Confocal direct fluorescence of rBAG3-FITC binding to cardiomyocytes. On the set-up: species or system Human. Particulars: FITC-conjugated BAG3, 1 h, FIG. 3A. From the text:
FIG. 3A: Confocal microscopy analysis of direct fluorescence performed for detection of rBAG3-FITC binding to HCMa cells (a, b, c) and J774 A1 cells (d, e, f, g, h, i). BAG3 recombinant protein and purified BSA (albumin from bovine serum purchased from SIGMA) were conjugated to FITC using the FluoroTag FITC Conjugation Kit purchased from SIGMA following the manufacturer instructions. Equal amount of rBAG3-FITC (b, e) and BSA-FITC (h) proteins, calculated following the manufacturer instructions, were added in HCM and J774 A1 culture media with 0.1% NaN3 for 1 h. β-integrin was analyzed as control (a, d, g). Cells were analyzed by a Zeiss LSM confocal microscope. Merged images are shown in c, f and i.
Cells were cultured on coverslips in six-well plates to 60-70% confluence and equal amount of rBAG3-FITC and BSA-FITC proteins were added in HCMa and J774 A1 culture media with 0.1% NaN3 for 1 h. […] Samples were analyzed using a confocal laser scanning microscope (Zeiss LSM confocal microscope, Germany). […] For production of figures, brightness and contrast of images were adjusted by taking care to leave a light cellular fluorescence background for visual appreciation of the lowest fluorescence intensity features and to help comparison among the different experimental groups. […]

In test [11] the target is surface of J774 A1 macrophages (unidentified BAG3 binding partner) (murine). As to the kind of experiment: flow cytometry on J774 A.1 cells, FITC-BSA negative control.
Test [12] shares this target. The test can be described thus: flow cytometry competition; 14 nM FITC-rBAG3 on J774 A.1 cells with 625 nM peptide.

Take “FITC-BSA: purified albumin from bovine serum conjugated to FITC, negative control [reference compound]”: in test [1] (FITC-BSA negative control, J774 cells), the “% of positive cells (±S.D.)” value was 4.04 (±0.06) %.

In the case of “FITC-conjugated recombinant BAG3 protein (from UniProt O95817 1-575) (ligand)”, the % of positive cells in test [2] is 15.7%; in test [3], 11.1%.

Regarding “SSPKSVATEERAAPS (listed as Homo sapiens) [Pep2, 12]”, in test [4], the “Competition assays: % inhibition” value is listed as 89.1% and the “Competition assays: % of positive cells (±S.D.)” value (from here on “Competition assays: % … (±S.D.)”) is recorded as 1.21 (±0.63) %.

Usually % inhibition stands for the change of the read-out against control, counted positive when it falls. Consider F(ab')2 fragments from mouse IgG, for which, in test [5], the % inhibition turned out to be 0% and the % of positive cells is 12.3%.

Consider “recombinant BAG3: E. coli-derived recombinant BAG3 protein”, for which the “iNOS levels in macrophages” value in test [6] was “enhanced”. Moreover, the “Cox-2 levels in macrophages” value in test [7] is “enhanced”. For the same molecule, the release of nitrite entry in test [8] is reported as “induced the release”. The “release of interleukin (IL)-6” value in [9] is reported as “induced the release”.

As for “FITC-rBAG3: BAG3 recombinant protein conjugated to FITC”, in test [1] (FITC-conjugated BAG3, FIG. 3B), the “binding to macrophages of the cell line J774 (in words)” value was “bound to macrophages”. For the same molecule, the “% of positive cells (±S.D.)” value in [1] (FITC-rBAG3 14 nM, J774 cells) is reported as 15.7 (±0.45) %. Further, the “% of positive cells (±S.D.), (FITC-rBAG3)-(FITC-BSA)” value in test [1] (FITC-rBAG3 signal minus FITC-BSA signal, J774 cells) is reported as 11.06 (±0.45) %. Also, the “binding to the cardiomyocyte surface (in words)” value in test [10] is “did not apparently bind”.

Take “NPSSMTDTPGNPAAP (listed as Homo sapiens) [Pep4, 14]”: in test [4], the “Competition assays: % inhibition” value was 93.8% and the “Competition assays: % … (±S.D.)” value was 0.68 (±0.20) %.

With “FITC-conjugated bovine serum albumin (from UniProt P02769 25-607)”, in test [11], the % of positive cells is 4.04%.

As to F(ab')2 fragments from rabbit IgG, in [5], the % inhibition is 0% and the % of positive cells came out at 14.7%.

Take “DKGKKNAGNAEDPHT (listed as Homo sapiens) [Pep3, 13]”: in test [4], the “Competition assays: % inhibition” value is on record as 47.2% and the “Competition assays: % … (±S.D.)” value is on record as 5.86 (±0.43) %.

For the molecule “DRDPLPPGWEIKIDPQ (listed as Homo sapiens) [Pepl, 11]”, in test [4], the “Competition assays: % inhibition” value is reported as 98.4% and the “Competition assays: % … (±S.D.)” value is given as 0.18 (±0.05) %.

Take SSPKSVATEERAAPS [BAG3 peptide 2]: in test [12], the % inhibition was determined as 89.1% and the % of positive cells stood at 1.21%.

In the case of DRDPLPPGWEIKIDPQ [BAG3 peptide 1], in test [12], the % inhibition amounted to 98.4% and the % of positive cells came out at 0.18%.

Consider DKGKKNAGNAEDPHT [BAG3 peptide 3], for which, in test [12], the % inhibition is 47.2% and the % of positive cells came out at 5.86%.

For the molecule NPSSMTDTPGNPAAP [BAG3 peptide 4], in test [12], the % inhibition turned out to be 93.8% and the % of positive cells came to 0.68%.

(Values after patent US20150132764A1, “BAG3 AS BIOCHEMICAL SERUM AND TISSUE MARKER” (BIOUNIVERSA S.R.L., priority 2012, published 2015).)
